Results taken from ChEMBL document CHEMBL1139200, “Structure-activity relationships, and drug metabolism and pharmacokinetic properties for indazole piperazine and indazole piperidine inhibitors of ROCK-II” (Bioorg Med Chem Lett, 2007).
Blank lines part the entries; values can stand above or below the molecule they belong to.

What was measured:
[1] = molecular target: Rho-associated protein kinase 2 (Homo sapiens, UniProt O75116); assay: Inhibition of ROCK2
[2] = Half life in rat at 1 mg/kg, iv; assay type: ADME, organism-based; design: dose 1 mg/kg, route intravenous; conditions: in vivo
[3] = Clearance in rat at 1 mg/kg, iv; assay type: ADME, organism-based; design: dose 1 mg/kg, route intravenous; conditions: in vivo
[4] = Volume of distribution in rat at 1 mg/kg, iv; assay type: ADME, organism-based; design: dose 1 mg/kg, route intravenous; conditions: in vivo
[5] = AUC (0 to infinity) in rat at 1 mg/kg, iv; assay type: ADME, organism-based; design: time infinity, dose 1 mg/kg, route intravenous; conditions: plasma
[6] = AUC (0 to infinity) in rat at 2 mg/kg, po; assay type: ADME, organism-based; design: time infinity, dose 2 mg/kg, route oral; conditions: plasma
[7] = Cmax in rat at 2 mg/kg, po; assay type: ADME, organism-based; design: dose 2 mg/kg, route oral; conditions: in vivo
[8] = Tmax in rat at 2 mg/kg, po; assay type: ADME, organism-based; design: dose 2 mg/kg, route oral; conditions: in vivo
[9] = Oral bioavailability in rat at 2 mg/kg; assay type: ADME, organism-based; conditions: in vivo
[10] = Inhibition of MRCK; design: species or system Homo sapiens
[11] = Inhibition of PKA; design: species or system Homo sapiens
N2a = assay: Inhibition of LPA-induced neurite retraction in mouse N2A cells; assay type: functional, cell-based
[12] = Metabolic stability in human liver microsomes
Homo sapiens [13] = species: Homo sapiens; assay: Selectivity for ROCK2 over MRCK
Homo sapiens [14] = species: Homo sapiens; assay: Selectivity for ROCK2 over PKA
Cytochrome P450 3A4 = Cytochrome P450 3A4 (Homo sapiens, UniProt P08684)
Chain of Cytochrome P450 3A4 (P08684 whole entry): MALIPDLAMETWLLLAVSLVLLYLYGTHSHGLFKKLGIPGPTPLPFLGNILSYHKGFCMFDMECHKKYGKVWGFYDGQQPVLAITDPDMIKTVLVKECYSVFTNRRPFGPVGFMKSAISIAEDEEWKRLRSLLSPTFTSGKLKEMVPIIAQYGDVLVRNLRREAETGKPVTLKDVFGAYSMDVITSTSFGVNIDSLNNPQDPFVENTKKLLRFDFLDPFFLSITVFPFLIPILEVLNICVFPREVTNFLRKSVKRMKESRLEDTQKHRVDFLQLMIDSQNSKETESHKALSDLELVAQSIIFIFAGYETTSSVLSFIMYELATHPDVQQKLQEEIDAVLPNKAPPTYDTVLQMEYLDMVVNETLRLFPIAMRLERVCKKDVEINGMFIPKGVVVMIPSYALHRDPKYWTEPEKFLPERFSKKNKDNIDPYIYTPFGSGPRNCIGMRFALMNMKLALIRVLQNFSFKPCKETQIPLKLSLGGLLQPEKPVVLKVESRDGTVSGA

Chain of Rho-associated protein kinase 2 (O75116 whole entry): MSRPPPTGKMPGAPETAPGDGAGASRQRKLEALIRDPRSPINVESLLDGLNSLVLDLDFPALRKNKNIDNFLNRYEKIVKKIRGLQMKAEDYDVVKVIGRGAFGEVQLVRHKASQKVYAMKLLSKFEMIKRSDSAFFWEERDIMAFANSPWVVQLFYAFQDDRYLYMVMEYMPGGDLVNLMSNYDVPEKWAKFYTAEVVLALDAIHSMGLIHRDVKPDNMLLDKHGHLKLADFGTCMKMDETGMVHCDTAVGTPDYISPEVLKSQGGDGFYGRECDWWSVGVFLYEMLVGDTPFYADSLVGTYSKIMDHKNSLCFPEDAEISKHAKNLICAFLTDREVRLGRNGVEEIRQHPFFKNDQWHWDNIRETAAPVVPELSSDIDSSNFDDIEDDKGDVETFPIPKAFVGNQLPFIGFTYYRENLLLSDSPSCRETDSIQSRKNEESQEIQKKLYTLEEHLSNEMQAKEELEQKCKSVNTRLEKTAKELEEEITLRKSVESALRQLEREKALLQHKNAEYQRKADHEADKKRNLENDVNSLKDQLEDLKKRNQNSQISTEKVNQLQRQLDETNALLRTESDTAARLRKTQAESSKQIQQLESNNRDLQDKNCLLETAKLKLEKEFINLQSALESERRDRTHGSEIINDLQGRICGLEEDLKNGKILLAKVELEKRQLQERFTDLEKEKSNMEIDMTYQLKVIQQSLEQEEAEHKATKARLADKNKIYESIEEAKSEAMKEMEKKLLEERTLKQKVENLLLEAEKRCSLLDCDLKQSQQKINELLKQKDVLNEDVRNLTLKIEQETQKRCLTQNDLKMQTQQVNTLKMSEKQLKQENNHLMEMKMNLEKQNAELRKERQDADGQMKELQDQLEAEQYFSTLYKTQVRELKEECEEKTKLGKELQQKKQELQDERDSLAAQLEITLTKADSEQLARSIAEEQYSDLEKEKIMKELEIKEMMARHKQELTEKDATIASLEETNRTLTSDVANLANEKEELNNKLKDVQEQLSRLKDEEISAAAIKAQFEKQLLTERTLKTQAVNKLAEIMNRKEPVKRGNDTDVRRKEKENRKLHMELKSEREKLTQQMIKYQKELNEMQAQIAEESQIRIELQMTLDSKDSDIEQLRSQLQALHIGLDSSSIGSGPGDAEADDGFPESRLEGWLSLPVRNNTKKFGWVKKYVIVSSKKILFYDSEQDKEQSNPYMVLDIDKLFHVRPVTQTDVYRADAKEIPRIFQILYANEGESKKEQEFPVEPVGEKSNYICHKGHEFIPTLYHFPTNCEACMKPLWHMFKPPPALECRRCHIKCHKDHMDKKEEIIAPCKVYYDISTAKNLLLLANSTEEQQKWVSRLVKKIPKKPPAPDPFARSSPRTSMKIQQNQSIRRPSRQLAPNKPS

- IC50 [1]: 100 nM
- half-life [2]: 42 min
- clearance [3]: 109 mL/min/kg
- Vd [4]: 3.7 L/kg
- AUC(0-inf) [5]: 0.38 µM·h
- AUC(0-inf) [6]: 0.21 µM·h
- Cmax [7]: 100 nM
- Tmax [8]: 24 min
- bioavailability [9]: 28%
- IC50 [10]: > 20000 nM
- IC50 [11]: 2700 nM
- IC50 (N2a): 2400 nM
Compound: O=C(C(O)c1ccc(Br)cc1)N1CCN(c2ccc3[nH]ncc3c2)CC1 (configuration not stated)

- IC50 [1]: 80 nM
- half-life ([12]; liver microsomes): 36.3 min
- half-life [2]: 66 min
- clearance [3]: 30.3 mL/min/kg
- Vd [4]: 1.9 L/kg
- AUC(0-inf) [5]: 1.35 µM·h
- AUC(0-inf) [6]: 0.71 µM·h
- Cmax [7]: 200 nM
- Tmax [8]: 24 min
- bioavailability [9]: 26%
- IC50 [10]: > 20000 nM
- Ratio IC50 (Homo sapiens [13]): > 250
- IC50 [11]: 4200 nM
- Ratio IC50 (Homo sapiens [14]): 53
- IC50 (N2a): 3500 nM
- IC50 (Cytochrome P450 3A4): 3500 nM
Compound: O=C(C(O)c1ccc(Br)cc1)N1CCC(Nc2ccc3[nH]ncc3c2)CC1 (configuration not stated)

- IC50 [1]: 470 nM
- IC50 (Cytochrome P450 3A4): 1000 nM
Compound: N[C@@H](Cc1ccccc1)C(=O)N1CCC(Nc2ccc3[nH]ncc3c2)CC1

- IC50 [1]: 1000 nM
- IC50 (Cytochrome P450 3A4): 3500 nM
Compound: O=C([C@H](O)c1cccc(Cl)c1)N1CCN(c2ccc3[nH]ncc3c2)CC1

- IC50 [1]: 380 nM
- IC50 (Cytochrome P450 3A4): 7000 nM
Compound: N[C@H](Cc1ccccc1)C(=O)N1CCN(c2ccc3[nH]ncc3c2)CC1

- IC50 [1]: 760 nM
- IC50 (Cytochrome P450 3A4): 250 nM
Compound: NC(C(=O)N1CCN(c2ccc3[nH]ncc3c2)CC1)c1cccc(Cl)c1 (configuration not stated)

- IC50 [1]: 1200 nM
- IC50 (Cytochrome P450 3A4): 8000 nM
Compound: O=C([C@H](O)c1ccccc1Cl)N1CCN(c2ccc3[nH]ncc3c2)CC1

- IC50 [1]: 13 nM
- half-life ([12]; microsomes): 10.8 min
- half-life [2]: 36 min
- clearance [3]: 41.4 mL/min/kg
- Vd [4]: 1.7 L/kg
- AUC(0-inf) [5]: 0.95 µM·h
- AUC(0-inf) [6]: 0.15 µM·h
- Cmax [7]: 100 nM
- Tmax [8]: 42 min
- bioavailability [9]: 8%
- IC50 [10]: 7200 nM
- Ratio IC50 (Homo sapiens [13]): 554
- IC50 [11]: 940 nM
- Ratio IC50 (Homo sapiens [14]): 72
- IC50 (N2a): 5700 nM
- IC50 (Cytochrome P450 3A4): 490 nM
Compound: NC(C(=O)N1CCC(Nc2ccc3[nH]ncc3c2)CC1)c1ccc(Br)cc1 (configuration not stated)

- IC50 [1]: 10000 nM
- IC50 (Cytochrome P450 3A4): 1000 nM
Compound: C[C@H](O)C(=O)N1CCC(Nc2ccc3[nH]ncc3c2)CC1

- IC50 [1]: 5300 nM
- IC50 (Cytochrome P450 3A4): 10000 nM
Compound: O=C([C@@H]1Cc2ccccc2CN1)N1CCN(c2ccc3[nH]ncc3c2)CC1

- IC50 [1]: 1300 nM
- IC50 (Cytochrome P450 3A4): 470 nM
Compound: N[C@@H](C(=O)N1CCN(c2ccc3[nH]ncc3c2)CC1)c1ccccc1

- IC50 [1]: 190 nM
- IC50 (Cytochrome P450 3A4): 3000 nM
Compound: O=C(C(O)c1ccc(Cl)cc1)N1CCN(c2ccc3[nH]ncc3c2)CC1 (configuration not stated)

- IC50 [1]: 150 nM
- IC50 (Cytochrome P450 3A4): 170 nM
Compound: NC(C(=O)N1CCC(Nc2ccc3[nH]ncc3c2)CC1)c1cccc(Cl)c1 (configuration not stated)

- IC50 [1]: > 10000 nM
- IC50 (Cytochrome P450 3A4): 10000 nM
Compound: C[C@@H](N)C(=O)N1CCN(c2ccc3[nH]ncc3c2)CC1

- IC50 [1]: 770 nM
- IC50 (Cytochrome P450 3A4): 1000 nM
Compound: O=C([C@H](O)c1ccccc1)N1CCC(Nc2ccc3[nH]ncc3c2)CC1

- IC50 [1]: 90 nM
- half-life ([12]; liver microsomes): 9.8 min
- half-life [2]: 36 min
- clearance [3]: 75.5 mL/min/kg
- Vd [4]: 2.7 L/kg
- AUC(0-inf) [5]: 0.54 µM·h
- AUC(0-inf) [6]: 0.09 µM·h
- Cmax [7]: 400 nM
- Tmax [8]: 24 min
- bioavailability [9]: 8%
- IC50 [10]: > 20000 nM
- Ratio IC50 (Homo sapiens [13]): > 222
- IC50 [11]: 450 nM
- Ratio IC50 (Homo sapiens [14]): 5
- IC50 (N2a): > 15000 nM
- IC50 (Cytochrome P450 3A4): 410 nM
Compound: NC(C(=O)N1CCN(c2ccc3[nH]ncc3c2)CC1)c1ccc(Br)cc1 (configuration not stated)

- IC50 [1]: 190 nM
- IC50 (Cytochrome P450 3A4): 530 nM
Compound: NC(C(=O)N1CCN(c2ccc3[nH]ncc3c2)CC1)c1ccc(Cl)cc1 (configuration not stated)

- IC50 [1]: 1700 nM
- IC50 (Cytochrome P450 3A4): 4000 nM
Compound: O=C([C@@H](O)c1ccccc1Cl)N1CCC(Nc2ccc3[nH]ncc3c2)CC1

- IC50 [1]: 6000 nM
- IC50 (Cytochrome P450 3A4): > 10000 nM
Compound: C[C@H](N)C(=O)N1CCC(Nc2ccc3[nH]ncc3c2)CC1

- IC50 [1]: 350 nM
- IC50 (Cytochrome P450 3A4): 2000 nM
Compound: O=C([C@@H](O)c1cccc(Cl)c1)N1CCC(Nc2ccc3[nH]ncc3c2)CC1

- IC50 [1]: 830 nM
Compound: N[C@H](C(=O)N1CCC(Nc2ccc3[nH]ncc3c2)CC1)c1ccccc1

- IC50 [1]: 3900 nM
- IC50 (Cytochrome P450 3A4): 10000 nM
Compound: CC(C)[C@@H](O)C(=O)N1CCN(c2ccc3[nH]ncc3c2)CC1

- IC50 [1]: 800 nM
- IC50 (Cytochrome P450 3A4): 10000 nM
Compound: O=C([C@H](O)c1ccccc1)N1CCN(c2ccc3[nH]ncc3c2)CC1
